From patent publication US8592552B2 (priority 2007, dated 2013)
Where no end group is shown, it is not given here.

What was measured:
[1] = test system: Vero cells
[2] = test system: African swine fever virus (ASFV) BA71V; format: cell-based

Substance | proliferation of Vero cells (proliferative index) [1] | I.C.E. at 50 μM (inhibition of the cytopathic effect) [2] | I.C.E. at 100 μM (inhibition of the cytopathic effect) [2]
RRRRRRRRSLVSSDESSSGSSHSSGEHS [RS28] | not modified |  | 
SS20: 20-residue negative control peptide of irrelevant sequence (SLVSSDESSSGSSHSSGEHS) [reference compound] |  | no | no
